In patent publication US8945361B2, “Electrophoresis standards, methods and kits” (ProteinSimple, priority 2005, dated 2015):
Where a SMILES comes first, the peptide text is derived from it. The star is where a group is joined. 5TAMRA = CN(C)c1ccc2c(c1)Oc1cc(N(C)C)ccc1C21OC(=O)c2cc(C(=O)*)ccc21; X1 = [N-]=[N+]=Nc1c(F)c(F)c(C(=O)*)c(F)c1F

Assays:
[1] = pI mobility standard
Source text: The pI of standards can be determined directly in IEF PAGE gels using a pH meter with a microprobe.

[2] = expected pKa's, net charge and pI of the Example 5 peptide; type: physicochemical
Source text: The blocks of lysine (K) and glutamic acid (E) residues contain basic and acidic ionizable groups at a variety of pKa values in keeping with the proximity effects described above. […] The approximate expected net charge on the peptide at various pH values is then as follows: pH 11, −3; pH 10, −2.5; pH 9, −1.7; pH 8, −0.8; pH 7, +0.3; pH 6, +1.2; pH 5, +2.3; pH 4, +3.2; pH 3, +4, pH 2, +4.5; pH 1, +5. […] The peptide is therefore expected to be a useful pI standard that forms a tight band under electrophoretic conditions in a pH gradient. Additional standards of desired pIs can be generated by systematically varying the number of sequential K and E residues in a set of peptides based on the above sequence.

Compound | pI [1] | approximate expected net charge ([2]; pH 1) | approximate expected net charge ([2]; pH 2) | approximate expected net charge ([2]; pH 3) | approximate expected net charge ([2]; pH 4) | approximate expected net charge ([2]; pH 5) | approximate expected net charge ([2]; pH 6) | approximate expected net charge ([2]; pH 7) | approximate expected net charge ([2]; pH 8) | approximate expected net charge ([2]; pH 9) | approximate expected net charge ([2]; pH 10) | approximate expected net charge ([2]; pH 11)
C[C@H](NC(=O)CNC(=O)[C@@H](N)CCCCNC(=O)c1c(F)c(F)c(N=[N+]=[N-])c(F)c1F)C(=O)N[C@@H](CCC(=O)O)C(=O)N[C@@H](Cc1c[nH]cn1)C(=O)N[C@@H](Cc1c[nH]cn1)C(=O)N[C@@H](CCCCNC(=O)c1ccc2c(c1)C(=O)OC21c2ccc(N(C)C)cc2Oc2cc(N(C)C)ccc21)C(=O)NCC(=O)O [H2N—K(ATFB)GAEHHK(5-TAMRA)G-OH] (H-K(X1)GAEHHK(5TAMRA)G-OH) | approximately 5.45 |  |  |  |  |  |  |  |  |  |  | 
Ac—K(ATFB) KKKKKAibAibEEEGG K(5-TAMRA)G-NH2 |  | ~+5 | ~+4.5 | ~+4 | ~+3.2 | ~+2.3 | ~+1.2 | ~+0.3 | ~−0.8 | ~−1.7 | ~−2.5 | ~−3
